{"source": "paper PMC12311729", "about": "“Probing the Mechanism of L‑DOPA 2,3-Dioxygenase Using Synthetic Derivatives of 3,4-Dihydroxyhydrocinnamic Acid” (ACS Omega, 2025)", "key": {"[1]": {"assay": "Cyclic voltammetry (redox potentials on a GCE)", "type": "physicochemical", "settings": "for (E p)a Oxidation / (E p)c Reduction / E1/2 / Ipa/Ipc / ΔE p: GCE (d = 2 mm)", "description": "Reduction and oxidation potentials were experimentally performed by cyclic voltammetry (CV) at biological pH 7.4, as previously described. All samples were run on a CH Instruments 600E Potentiostat in a one-compartment cell equipped with a three-electrode system arrangement. The three-electrode system included a saturated calomel electrode as the reference electrode, a platinum wire as the auxiliary electrode, and a glassy carbon electrode (GCE, d = 2 mm) as the working electrode. The GCE was polished between each sample scan with an aqueous slurry of alumina powder on a microcloth pad. The electrodes were rinsed with distilled water prior to the next scan. All scans were conducted under nitrogen for oxygen displacement and at room temperature (rt, 25 ± 1 °C). All samples were prepared as close to the scan as possible (approximately 2 min each). Each sample (5 mL) contained 0.1 mM catecholic substrate and 1 μM DMSO in 0.1 M phosphate buffer at a pH of 7.4 or 6.0. […] The cyclic voltammograms for the compounds at both pH 6.0 and 7.4 are available in Figures S40–S51."}, "[2]": {"test_system": "S. hygroscopicus jingganensis L-DOPA 2,3-dioxygenase (ShjDDO)", "assay": "Presteady state stopped-flow kinetic assay, modeled with KinTek Explorer", "type": "biochemical, Streptomyces hygroscopicus jingganensis", "experimental": "Reaction temperature was controlled at 14 ± 0.5 °C by a circulating water bath. […] Stock solutions of 6-[…] prepared in DMSO. […] ShjDDO was reconstituted with iron(II) sulfate heptahydrate, gel filtered into the reaction buffer, and loaded into the drive syringe. […] Fifteen to twenty progress curves from the same experimental conditions were averaged in the KinTek Stopped Flow software and exported to KinTek Explorer for modeling. Between experiments, the instrument drive syringes were cleaned with acid, base, and water; soaked in 1% Hellmanex detergent for 30 min at ∼30-35 °C; thoroughly rinsed with water; and stored in 10% ethanol. […] state kinetic data were analyzed by fitting to simulated mechanisms using the KinTek Explorer software (KinTek Corp, Austin, TX). KinTek Explorer simulates experimental results by using direct numerical integration of rate equations for the kinetic model and yields estimates for the rate constants of microscopic steps. […] state experiments were modeled using KinTek Explorer according to a defined reaction pathway, as described in the Results and Discussion and shown in Scheme . The extinction coefficients of the DHHCA and 6-[…] semialdehyde products were independently determined as described above and fixed during fitting. Some rates were fixed as either “fast” (i.e., 1 × 10^9) or very slow (1 × 10^-12, i.e., ∼0) as described in the text. The equilibrium represented by k 1 and k -1 was fixed at the ratio of substrate charge states as predicted by the experimentally determined pK a values (Table ) and the Henderson-Hasselbach equation. Extinction coefficients were fitted and/or fixed during fitting as described in the text and interpreted using the observable expression: […], where a is the extinction coefficient applied to ESQ, b is the independently experimentally determined extinction coefficient on P, and c is a y-axis offset. […] ESO2 is the ternary complex of enzyme, substrate, and oxygen. ESQ represents the putative semiquinone intermediate, a UV-absorbing species, and ESQ_X is the species formed from the nonproductive quenching of the semiquinone. […] EP is the enzyme-product complex, and P is the free semialdehyde product. P can then degrade nonenzymatically to the spectroscopically silent P_X. Errors on each fit were calculated from 2[…] at 0.83 Chi^2. The KinTek Explorer program FitSpace explores the uniqueness of a particular fit to the data by measuring the dependence of the sum square error (SSE) on each pair of parameters, while allowing all other parameters to vary in seeking the best fit. […]"}, "[3]": {"settings": "pH 7.35, 14 °C, ∼1000 μM O2, 380 nm, fitted, ± is FitSpace range"}}}
{"smiles": "N#Cc1cc(O)c(O)cc1CCC(=O)O", "note": "[6-CyanoDHHCA (5), 3-(2-cyano-4,5-dihydroxyphenyl) propanoic acid]", "values": [{"measurement": "(E p)a Oxidation", "setting": "[1]; pH 6.0", "result": 358, "unit": "mV"}, {"measurement": "(E p)c Reduction", "setting": "[1]; pH 6.0", "result": 260, "unit": "mV"}, {"measurement": "E1/2", "setting": "[1]; pH 6.0", "result": 309, "unit": "mV"}, {"measurement": "Ipa/Ipc", "setting": "[1]; pH 6.0", "result": 3.92}, {"measurement": "ΔE p", "setting": "[1]; pH 6.0", "result": 98, "unit": "mV"}, {"measurement": "(E p)a Oxidation", "setting": "[1]; pH 7.4", "result": 272, "unit": "mV"}, {"measurement": "(E p)c Reduction", "setting": "[1]; pH 7.4", "result": 147, "unit": "mV"}, {"measurement": "E1/2", "setting": "[1]; pH 7.4", "result": 209.5, "unit": "mV"}, {"measurement": "Ipa/Ipc", "setting": "[1]; pH 7.4", "result": 1.96}, {"measurement": "ΔE p", "setting": "[1]; pH 7.4", "result": 125, "unit": "mV"}, {"measurement": "E1/2 (mV) at pH 7.4 relative to L-DOPA x 100", "setting": "[1]; percentage of the value for L-DOPA", "result": 104, "unit": "%"}, {"measurement": "k6 (productive formation of EI)", "setting": "[2]; [3]", "result": "~0.55", "unit": "s⁻¹"}, {"measurement": "k7 (rate of inactivation, ESQ to ESQ_X)", "setting": "[2]; [3]", "result": "~0.3", "unit": "s⁻¹"}, {"measurement": "productive formation of EI (k 6) faster than the rate of inactivation (k 7)", "setting": "[2]; ratio k6/k7, presteady state with ShjDDO", "result": 1.85, "unit": "times"}]}
